In paper PMC12155096 (International Journal of Molecular Sciences, 2025):

Assays:
[1] = target: Photinus pyralis (firefly) luciferase (Photinus pyralis, UniProt P08659); assay: biochemical; format: biochemical
[2] = target: T1, human CYP2C9 (Homo sapiens, UniProt P11712); assay: biochemical; details: for AC50: CYP2C9 AC50 (half-maximal activity concentration)
[3] = target: T2, human CYP1A2 (Homo sapiens, UniProt P05177); assay: biochemical; details: for AC50: CYP1A2 AC50 (half-maximal activity concentration)
T2 sequence (P05177 1-516): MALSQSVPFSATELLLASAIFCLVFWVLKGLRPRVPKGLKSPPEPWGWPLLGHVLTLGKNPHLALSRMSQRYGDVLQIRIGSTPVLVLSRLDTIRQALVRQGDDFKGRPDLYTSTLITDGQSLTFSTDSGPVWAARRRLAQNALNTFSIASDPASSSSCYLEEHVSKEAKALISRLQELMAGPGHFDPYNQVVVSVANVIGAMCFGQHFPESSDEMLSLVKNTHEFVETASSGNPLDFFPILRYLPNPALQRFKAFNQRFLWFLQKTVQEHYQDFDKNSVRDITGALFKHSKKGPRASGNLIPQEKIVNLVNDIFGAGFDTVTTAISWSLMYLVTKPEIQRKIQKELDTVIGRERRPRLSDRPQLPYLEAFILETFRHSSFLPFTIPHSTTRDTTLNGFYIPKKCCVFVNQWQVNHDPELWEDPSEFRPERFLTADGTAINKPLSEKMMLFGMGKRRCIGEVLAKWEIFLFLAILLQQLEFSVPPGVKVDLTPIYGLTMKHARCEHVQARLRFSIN

[4] = target: T3, human CYP2C19 (Homo sapiens, UniProt P33261); details: for CYP2C19 Efficacy (in parenthesis): human
[5] = target: T4, CYP3A4 (Homo sapiens, UniProt P08684); assay: biochemical; details: for AC50: CYP3A4 AC50 (half-maximal activity concentration); for IC50: CYP3A4 IC50 (half-maximal inhibitory concentration)
[6] = target: T4, CYP3A4
[7] = target: T2, human CYP1A2; details: for CYP1A2 Efficacy (in parenthesis): human
[8] = target: T3, human CYP2C19; assay: biochemical; details: for AC50: CYP2C19 AC50 (half-maximal activity concentration); for IC50: CYP2C19 IC50 (half-maximal inhibitory concentration)
[9] = target: T5, human CYP2D6 (Homo sapiens, UniProt P10635); assay: biochemical; details: CYP2D6 AC50 (half-maximal activity concentration)
[10] = target: T5, human CYP2D6
[11] = target: T1, human CYP2C9; details: for CYP2C9 Efficacy (in parenthesis): human
[12] = CYP2C9 IC50 (half-maximal inhibitory concentration)
[13] = CYP1A2 IC50 (half-maximal inhibitory concentration)

T5 sequence (P10635 whole entry): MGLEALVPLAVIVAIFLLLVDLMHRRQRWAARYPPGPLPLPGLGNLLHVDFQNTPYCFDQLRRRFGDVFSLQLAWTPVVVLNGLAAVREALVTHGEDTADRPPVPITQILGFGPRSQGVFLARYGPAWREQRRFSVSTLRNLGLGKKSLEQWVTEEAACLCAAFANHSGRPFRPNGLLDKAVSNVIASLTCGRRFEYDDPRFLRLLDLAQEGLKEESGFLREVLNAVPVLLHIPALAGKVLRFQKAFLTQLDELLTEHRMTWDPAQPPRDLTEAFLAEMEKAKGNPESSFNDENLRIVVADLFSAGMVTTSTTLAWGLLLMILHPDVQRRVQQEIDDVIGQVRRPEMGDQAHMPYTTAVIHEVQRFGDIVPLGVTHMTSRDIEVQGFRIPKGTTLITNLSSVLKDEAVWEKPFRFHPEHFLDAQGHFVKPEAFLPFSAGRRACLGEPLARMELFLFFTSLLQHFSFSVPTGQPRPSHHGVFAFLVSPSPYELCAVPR
T1 sequence (P11712 whole entry): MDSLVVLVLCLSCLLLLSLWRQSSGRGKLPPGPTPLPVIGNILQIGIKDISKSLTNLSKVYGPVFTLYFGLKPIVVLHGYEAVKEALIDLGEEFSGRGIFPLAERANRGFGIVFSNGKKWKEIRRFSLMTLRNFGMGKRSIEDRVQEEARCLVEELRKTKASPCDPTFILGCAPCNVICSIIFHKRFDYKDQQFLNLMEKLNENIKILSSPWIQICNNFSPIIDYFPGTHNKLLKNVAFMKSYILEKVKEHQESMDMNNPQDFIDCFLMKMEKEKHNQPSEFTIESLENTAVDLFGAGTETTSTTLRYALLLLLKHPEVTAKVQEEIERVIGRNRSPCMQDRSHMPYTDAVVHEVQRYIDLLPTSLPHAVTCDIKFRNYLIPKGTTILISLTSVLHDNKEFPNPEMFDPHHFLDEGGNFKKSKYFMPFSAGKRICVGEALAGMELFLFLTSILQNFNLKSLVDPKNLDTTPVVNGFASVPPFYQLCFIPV
Photinus pyralis (firefly) luciferase, sequence (P08659 whole entry): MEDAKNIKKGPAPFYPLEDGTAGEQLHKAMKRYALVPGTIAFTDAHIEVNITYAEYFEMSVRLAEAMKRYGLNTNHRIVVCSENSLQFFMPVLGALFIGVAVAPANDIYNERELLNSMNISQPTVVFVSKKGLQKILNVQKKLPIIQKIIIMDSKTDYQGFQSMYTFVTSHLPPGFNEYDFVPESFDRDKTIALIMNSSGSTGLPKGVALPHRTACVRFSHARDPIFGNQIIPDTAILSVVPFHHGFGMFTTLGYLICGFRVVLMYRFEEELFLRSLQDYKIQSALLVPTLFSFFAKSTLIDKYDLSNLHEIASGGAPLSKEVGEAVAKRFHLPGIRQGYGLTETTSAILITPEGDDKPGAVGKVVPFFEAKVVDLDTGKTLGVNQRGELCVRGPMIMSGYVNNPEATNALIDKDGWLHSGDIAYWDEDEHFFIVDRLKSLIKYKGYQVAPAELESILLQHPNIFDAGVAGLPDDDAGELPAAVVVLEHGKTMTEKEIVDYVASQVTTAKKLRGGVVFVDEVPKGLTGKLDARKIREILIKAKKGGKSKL
T4 sequence (P08684 whole entry): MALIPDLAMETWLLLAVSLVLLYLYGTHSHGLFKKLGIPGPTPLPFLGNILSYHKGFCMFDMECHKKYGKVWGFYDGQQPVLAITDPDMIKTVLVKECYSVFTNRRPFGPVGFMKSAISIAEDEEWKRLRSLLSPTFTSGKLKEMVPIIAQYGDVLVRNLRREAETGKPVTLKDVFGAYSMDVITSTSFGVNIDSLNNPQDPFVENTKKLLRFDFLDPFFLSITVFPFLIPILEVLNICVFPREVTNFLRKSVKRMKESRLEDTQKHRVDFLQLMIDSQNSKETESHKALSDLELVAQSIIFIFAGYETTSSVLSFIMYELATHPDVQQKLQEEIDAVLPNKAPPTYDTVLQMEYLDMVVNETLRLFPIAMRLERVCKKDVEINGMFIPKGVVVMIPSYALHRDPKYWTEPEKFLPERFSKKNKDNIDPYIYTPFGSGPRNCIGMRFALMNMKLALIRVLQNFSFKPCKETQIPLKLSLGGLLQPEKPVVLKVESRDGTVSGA
T3 sequence (P33261 whole entry): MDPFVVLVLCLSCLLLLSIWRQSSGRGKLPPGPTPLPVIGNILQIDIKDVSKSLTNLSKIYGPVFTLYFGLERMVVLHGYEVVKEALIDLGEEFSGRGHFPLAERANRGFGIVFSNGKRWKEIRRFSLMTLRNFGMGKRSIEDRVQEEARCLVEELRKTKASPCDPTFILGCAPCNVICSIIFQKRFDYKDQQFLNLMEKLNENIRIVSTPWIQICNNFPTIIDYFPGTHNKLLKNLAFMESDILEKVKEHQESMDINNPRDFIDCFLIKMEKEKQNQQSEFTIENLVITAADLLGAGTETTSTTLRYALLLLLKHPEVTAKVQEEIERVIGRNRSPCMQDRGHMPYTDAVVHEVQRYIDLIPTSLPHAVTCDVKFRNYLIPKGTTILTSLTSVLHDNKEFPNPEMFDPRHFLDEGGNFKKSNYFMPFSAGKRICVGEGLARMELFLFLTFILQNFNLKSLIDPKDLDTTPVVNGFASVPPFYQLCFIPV

Compound	AC50 [2]	AC50 [5]	CYP1A2 AC50 (half-maximal activity concentration) [7]	AC50 [8]	AC50 [9]	CYP2D6 IC50 (half-maximal inhibitory concentration) [10]	CYP3A4 Efficacy (in parenthesis) [6]	further results
Oc1ccc2[nH]cc(CCCCN3CC=C(c4ccccc4)CC3)c2c1 [Roxindole]	21.2 µM	1.91 µM						Luciferase IC50 [1]: Inactive; IC50 ([2]; CYP2C9 IC50): 21.2 µM; AC50 [3]: 22.4 µM; IC50 ([3]; CYP1A2 IC50): 22.4 µM; CYP2C19 IC50 [4]: Inactive; CYP3A4 IC50 [6]: 1.91 ± 0.48 (802 ± 30) µM
Cc1cccc(C)c1NC(=O)CN1CCN(CCCC(c2ccc(F)cc2)c2ccc(F)cc2)CC1 [Lidoflazine]	21.3 µM	2.26 µM	Inactive	36.7 µM	5.18 µM			
CCOP(=S)(OCC)Oc1ccc(Cl)cc1Cl [Dichlofenthion]						Inactive	2.22 ± 0.62 (-82 ± 5) %	Luciferase IC50 (half-maximal inhibitory concentration) [1]: Inactive; CYP1A2 Efficacy (in parenthesis) [7]: 3.07 ± 0.42 (-101 ± 5) %; IC50 [2, 12]: 3.56 µM; IC50 [8]: 0.44 µM; IC50 [3, 13]: 3.07 µM; CYP2C19 Efficacy (in parenthesis) [4]: 0.44 ± 0.11 (-121 ± 28) %; IC50 [5]: 2.22 µM; CYP2C9 Efficacy (in parenthesis) [11]: 3.56 ± 0 (-100 ± 3) %
CCOc1ccc(C(C)(C)COCc2cccc(Oc3ccccc3)c2)cc1 [Etofenprox]	7.13 µM	35.7 µM	Inconclusive inhibitor	16.4 µM	34.3 µM			
O=C1NC2CCCCN2C12CCN(CCCN1c3ccccc3CCc3ccc(Cl)cc31)CC2 (stereo not shown) [Mosapramine]		6.79 µM	Inactive		6.53 µM			CYP2C19 AC50 (half-maximal activity concentration) [4]: Inconclusive inhibitor; CYP2C9 AC50 (half-maximal activity concentration) [11]: Inconclusive inhibitor
Brc1c2ccccc2cc2ccccc12 [9-Bromoanthracene]						Inactive	25.01 ± 9.91 (-59 ± 38) %	IC50 [1]: 42.3 µM; CYP1A2 Efficacy (in parenthesis) [7]: 0.51 ± 0.11 (-99 ± 4) %; IC50 [2, 12]: 34.6 µM; IC50 [8]: 26.3 µM; IC50 [3, 13]: 0.51 µM; CYP2C19 Efficacy (in parenthesis) [4]: 26.26 ± 8.46 (-125 ± 5) %; IC50 [5]: 25 µM; CYP2C9 Efficacy (in parenthesis) [11]: 34.62 ± 2.26 (-73 ± 9) %
O=C(CCCN1CCN(c2ccccn2)CC1)c1ccc(F)cc1 [Azaperone]	5.25 µM	5.97 µM	Inactive	32.7 µM	12.4 µM			
CC(C)(C(=O)c1cccnc1)c1cccnc1 [Metyrapone]						Inactive	0.57 ± 0.16 (-62 ± 5) %	Luciferase IC50 (half-maximal inhibitory concentration) [1]: Inactive; CYP1A2 IC50 (half-maximal inhibitory concentration) [7]: Inactive; CYP2C19 IC50 (half-maximal inhibitory concentration) [4]: Inactive; IC50 [5]: 0.57 µM; CYP2C9 IC50 (half-maximal inhibitory concentration) [11]: Inactive
O=c1[nH]c2ccc([S+]([O-])CCN3CCC(Cc4ccc(F)cc4)CC3)cc2o1 (stereo not shown) [Besonprodil]	6.44 µM	21.5 µM	Inactive	50.9 µM	33 µM			
CC[N+](C)(CC)CCOC(=O)C1c2ccccc2Oc2ccccc21 [Methantheline bromide]		15.6 µM	Inconclusive inhibitor		3.29 µM			CYP2C19 AC50 (half-maximal activity concentration) [4]: Inactive; CYP2C9 AC50 (half-maximal activity concentration) [11]: Inactive
Brc1ccc(Oc2ccc(Br)cc2Br)c(Br)c1 [2,2'4,4'-Tetrabromodiphenyl ether]	12.7 µM	13 µM		0.55 µM		Inactive	13.01 ± 6.86 (68 ± 8) %	IC50 [1]: 44 µM; CYP1A2 Efficacy (in parenthesis) [7]: 16.84 ± 7.26 (-69 ± 6) %; IC50 [8]: 0.55 µM; AC50 [3]: 16.8 µM; IC50 [3, 13]: 16.8 µM; CYP2C19 Efficacy (in parenthesis) [4]: 0.55 ± 0.43 (-128 ± 5) %; CYP3A4 IC50 (half-maximal inhibitory concentration) [6]: 13.01 ± 6.86 (68 ± 8) µM
c1ccc(P(c2ccccc2)c2ccccc2)cc1 [Triphenylphosphine]	7.13 µM	36.2 µM	Inactive	8.69 µM	35.7 µM			
